Data: ChEMBL document CHEMBL5506038, “Discovery of LC-MI-3: A Potent and Orally Bioavailable Degrader of Interleukin-1 Receptor-Associated Kinase 4 for the Treatment of Inflammatory Diseases” (J Med Chem, 2024)
Activity calls are given as the source filed them. The calls are words filed in the database; no cut-off is given here.

Assays:
[1] = biological target: Serine/threonine-protein kinase RIO1 (Homo sapiens) (UniProt Q9BRS2); assay: Induction of RIOK1 degradation in human Caco-2 cells upto 10000 nM incubated for 12 hrs by Western blotting analysis; format: cell-based
Sequence of Serine/threonine-protein kinase RIO1 (Homo sapiens) (Q9BRS2 whole entry): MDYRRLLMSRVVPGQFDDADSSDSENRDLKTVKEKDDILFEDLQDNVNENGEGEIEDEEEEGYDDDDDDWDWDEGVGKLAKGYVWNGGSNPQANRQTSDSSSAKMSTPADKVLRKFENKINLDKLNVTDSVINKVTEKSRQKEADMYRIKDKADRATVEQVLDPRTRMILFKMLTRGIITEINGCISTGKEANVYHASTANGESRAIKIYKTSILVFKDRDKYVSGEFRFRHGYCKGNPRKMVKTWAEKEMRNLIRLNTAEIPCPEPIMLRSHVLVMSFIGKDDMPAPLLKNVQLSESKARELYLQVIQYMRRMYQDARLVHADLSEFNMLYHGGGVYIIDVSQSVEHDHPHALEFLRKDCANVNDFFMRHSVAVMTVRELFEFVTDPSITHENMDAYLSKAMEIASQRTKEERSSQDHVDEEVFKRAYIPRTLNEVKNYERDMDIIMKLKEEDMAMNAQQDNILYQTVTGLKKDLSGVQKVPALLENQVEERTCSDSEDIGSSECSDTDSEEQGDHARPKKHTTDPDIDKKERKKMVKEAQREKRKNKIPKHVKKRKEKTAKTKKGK

[2] = biological target: Zinc finger protein Aiolos (Homo sapiens) (UniProt Q9UKT9); assay: Induction of IKZF3 degradation in human THP-1 cells upto 10000 nM incubated for 12 hrs by Western blotting analysis; format: cell-based
Sequence of Zinc finger protein Aiolos (Homo sapiens) (Q9UKT9 whole entry): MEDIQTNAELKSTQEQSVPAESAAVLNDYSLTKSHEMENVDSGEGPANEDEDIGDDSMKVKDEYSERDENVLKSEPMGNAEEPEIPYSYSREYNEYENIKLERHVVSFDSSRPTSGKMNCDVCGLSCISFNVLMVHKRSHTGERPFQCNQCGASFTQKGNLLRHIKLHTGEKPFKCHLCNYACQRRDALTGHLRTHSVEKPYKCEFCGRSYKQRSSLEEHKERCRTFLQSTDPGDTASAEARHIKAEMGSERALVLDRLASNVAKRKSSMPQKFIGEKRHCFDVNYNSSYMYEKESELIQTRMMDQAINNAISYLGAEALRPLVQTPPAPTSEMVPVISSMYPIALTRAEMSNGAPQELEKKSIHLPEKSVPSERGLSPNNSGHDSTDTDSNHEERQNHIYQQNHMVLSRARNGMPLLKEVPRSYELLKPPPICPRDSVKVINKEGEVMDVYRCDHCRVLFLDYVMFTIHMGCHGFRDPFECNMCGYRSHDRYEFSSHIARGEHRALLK

[3] = tested on: Mus musculus; assay: Anti-inflammatory activity in imiquimod-induced C57BL/6 mouse psoriasis model assessed as reduction in dermal inflammatory cell infiltration at 20 mg/kg, po administered twice daily measured for 6 days by H and E staining based analysis; format: functional, organism-based; conditions: time 6.0 day
[4] = Tmax in Sprague-Dawley rat at 2 mg/kg, iv by LC-MS/MS analysis; format: ADME, organism-based; conditions: in vivo
[5] = tested on: RAW264.7; assay: Effect on TNFalpha mRNA expression in LPS-induced mouse RAW264.7 cells at 1 uM pretreated with compound for 1 hr followed by LPS-induction and measured after 6 hrs by RT-PCR analysis; format: functional, cell-based; conditions: time 7.0 hrs
[6] = Cmax in Sprague-Dawley rat at 20 mg/kg, po by LC-MS/MS analysis; format: ADME, organism-based; conditions: in vivo
[7] = Clearance in Sprague-Dawley rat at 2 mg/kg, iv by LC-MS/MS analysis; format: ADME, organism-based; conditions: in vivo
[8] = tested on: RAW264.7; assay: Effect on IRAK4 mRNA level in mouse RAW264.7 cells by RT-qPCR analysis; format: functional, cell-based
[9] = AUC (0 to infinity) in Sprague-Dawley rat at 2 mg/kg, iv by LC-MS/MS analysis; format: ADME, organism-based; conditions: in vivo
[10] = Drug metabolism in rat hepatocyte assessed as mono-hydroxylation mediated metabolite formation by LC-MS/MS analysis; format: ADME, cell-based; conditions: hepatocytes
[11] = tested on: Mus musculus; assay: Anti-inflammatory activity against LPS-induced acute […] injury C57BL/6 mouse model assessed as reduction in IL-6 level in lung at 20 mg/kg, IG pretreated with compound for 12 hrs followed by LPS-induction and measured after 6 hrs by RT-PCR analysis; format: functional, organism-based; conditions: time 18.0 hrs
[12] = biological target: T1, Protein cereblon/Interleukin-1 receptor-associated kinase 4 (Mus musculus) (UniProt Q8C7D2+Q8R4K2); assay: PROTAC activity at IRAK4/CRBN in mouse RAW264.7 cells assessed as induction of IRAK4 degradation at 25 to 2500 nM incubated for 12 hrs by Western blot analysis; format: cell-based; conditions: dose 25-2500 nM
T1 sequence (Q8C7D2 whole entry, looked up): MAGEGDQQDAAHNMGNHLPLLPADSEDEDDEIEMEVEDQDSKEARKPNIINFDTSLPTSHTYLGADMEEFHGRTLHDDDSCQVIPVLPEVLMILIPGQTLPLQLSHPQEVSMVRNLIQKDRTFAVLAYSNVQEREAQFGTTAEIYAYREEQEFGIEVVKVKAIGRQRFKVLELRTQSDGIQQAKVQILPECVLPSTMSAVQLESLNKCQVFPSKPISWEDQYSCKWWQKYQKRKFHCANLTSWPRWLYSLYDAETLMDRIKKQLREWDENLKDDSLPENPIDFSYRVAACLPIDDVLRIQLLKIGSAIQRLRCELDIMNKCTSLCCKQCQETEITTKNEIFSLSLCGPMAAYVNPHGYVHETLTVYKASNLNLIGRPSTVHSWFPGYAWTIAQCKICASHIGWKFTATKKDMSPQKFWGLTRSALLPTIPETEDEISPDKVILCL
T1 sequence (Q8R4K2 whole entry, looked up): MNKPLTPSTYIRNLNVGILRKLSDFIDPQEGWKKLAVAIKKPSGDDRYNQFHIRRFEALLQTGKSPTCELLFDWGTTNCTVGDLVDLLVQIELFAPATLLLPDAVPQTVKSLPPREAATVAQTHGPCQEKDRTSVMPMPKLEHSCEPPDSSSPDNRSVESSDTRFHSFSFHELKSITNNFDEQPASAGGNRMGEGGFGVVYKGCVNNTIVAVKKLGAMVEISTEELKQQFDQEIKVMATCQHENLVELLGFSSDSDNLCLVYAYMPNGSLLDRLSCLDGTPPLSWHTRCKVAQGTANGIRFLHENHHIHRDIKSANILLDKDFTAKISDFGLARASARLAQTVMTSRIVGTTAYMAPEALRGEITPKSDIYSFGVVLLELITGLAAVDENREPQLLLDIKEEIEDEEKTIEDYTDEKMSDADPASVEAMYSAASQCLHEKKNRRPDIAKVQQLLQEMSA

[13] = Half life in Sprague-Dawley rat at 20 mg/kg, po by LC-MS/MS analysis; format: ADME, organism-based; conditions: in vivo
[14] = biological target: T1, Protein cereblon/Interleukin-1 receptor-associated kinase 4 (Mus musculus); assay: PROTAC activity at IRAK4/CRBN in mouse RAW264.7 cells assessed as reduction in IRAK4 level at 100 nM incubated for 12 hrs by Western blot analysis relative to control; format: cell-based
[15] = tested on: Mus musculus; assay: Anti-inflammatory activity in imiquimod-induced C57BL/6 mouse psoriasis model assessed as reduction in epidermal acanthosis at 20 mg/kg, po administered twice daily measured for 6 days by H and E staining based analysis; format: functional, organism-based; conditions: time 6.0 day
[16] = Oral bioavailability in Sprague-Dawley rat at 20 mg/kg by LC-MS/MS analysis; format: ADME, organism-based; conditions: in vivo
[17] = biological target: T1, Protein cereblon/Interleukin-1 receptor-associated kinase 4 (Mus musculus); assay: PROTAC activity at IRAK4/CRBN in mouse BaF3 cells assessed as reduction in IRAK4 level at 100 nM incubated for 12 hrs by Western blot analysis relative to control; format: cell-based; set-up: scale not given: the % may be the effect or the level left
[18] = biological target: Protein cereblon/Interleukin-1 receptor-associated kinase 4 (Mus musculus, UniProt Q8C7D2+Q8R4K2); assay: PROTAC activity at IRAK4/CRBN in mouse RAW264.7 cells assessed as reduction in IRAK4 level incubated for 12 hrs by Western blot analysis; format: cell-based
Sequence of Protein cereblon/Interleukin-1 receptor-associated kinase 4 (Q8C7D2 whole entry): as the sequence (Q8C7D2 whole entry, looked up) above
Sequence of Protein cereblon/Interleukin-1 receptor-associated kinase 4 (Q8R4K2 whole entry): as the sequence (Q8R4K2 whole entry, looked up) above

[19] = biological target: T1, Protein cereblon/Interleukin-1 receptor-associated kinase 4 (Mus musculus); assay: PROTAC activity at IRAK4/CRBN in mouse RAW264.7 cells assessed as induction of IRAK4 degradation at 100 nM incubated for 12 hrs in presence of MG132 by Western blot analysis; format: cell-based
[20] = tested on: Mus musculus; assay: Protection against LPS-induced sepsis in C57BL/6 mouse model assessed as improvement in survival rate at 20 mg/kg, IG measured at 12 hrs; format: functional, organism-based
[21] = Cmax in Sprague-Dawley rat at 2 mg/kg, iv by LC-MS/MS analysis; format: ADME, organism-based; conditions: in vivo
[22] = tested on: Mus musculus; assay: Anti-inflammatory activity in imiquimod-induced C57BL/6 mouse psoriasis model assessed as improvement in erythema score at 20 mg/kg, po administered twice daily measured for 6 days; format: functional, organism-based; conditions: time 6.0 day
[23] = tested on: RAW264.7; assay: Activation of NF-kappaB pathway in LPS-induced mouse RAW264.7 cells expressing EGFP at 5 uM pretreated with compound for 1 hr followed by LPS-induction and measured at 15 min by flow cytometry analysis; format: cell-based; conditions: filed as activator, time 75.0 min
[24] = AUC (0 to infinity) in Sprague-Dawley rat at 20 mg/kg, po by LC-MS/MS analysis; format: ADME, organism-based; conditions: in vivo

COc1cc(N2CCN(C(=O)CCOCC#Cc3ccc4c(c3)C(=O)N(C3CCC(=O)NC3=O)C4=O)CC2)ccc1NC(=O)c1cccc(-c2ccn[nH]2)n1 (centres undefined)
Activity [1]: inactive | Activity [2]: inactive | Activity [3]: Active | Tmax [4]: 4.98 min | Activity [5]: Active | Cmax [6]: 440 ng/mL | clearance [7]: 25.6 mL/min/kg | Activity [8]: inactive | AUC(0-inf) [9]: 1330 ng·h/mL | Drug metabolism [10]: Metabolite_Detected | Activity [11]: Active | Activity [12]: inactive | half-life [13]: 87.2 min | Emax [14]: 85% | Activity [15]: Active | bioavailability [16]: 8.15% | Activity [17]: 15% | DC50 [18]: 47.4 nM | Activity [19]: Active | Activity [20]: Active | Cmax [21]: 2920 ng/mL | Activity [22]: Active | Activity [23]: Active | AUC(0-inf) [24]: 1080 ng·h/mL
